Laboratory results published in patent US20230085307A1, “PYRIDAZINONE COMPOUND AND HERBICIDE” (NISSAN CHEMICAL CORPORATION, priority 2019, published 2023).

Key:
[1] = system: late watergrass; test: Test Example 1: herbicidal activity, application before weed generation under submerged conditions (Table 16, symbol A); assay type: in vivo, late watergrass (Echinochloa oryzicola); details: 320 g/ha applied herbicide
In short: (§1)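 Emulsion formulation, water-diluted to set dose, was put onto the flooded surface (4 cm depth, alluvial soil) the same day weeds were sown and 2.5-leaf rice transplanted. After 3 weeks at 25-30 °C under glass, each species was rated 0 (≤5% kill) to 5 (≥90% kill).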

[2] = system: Japanese bulrush; test: Test Example 1: herbicidal activity, application before weed generation under submerged conditions (Table 16, symbol B); assay type: in vivo, Japanese bulrush (Schoenoplectus juncoides); details: 320 g/ha applied herbicide
In short: as §1

[3] = system: oval-leafed pondweed; test: Test Example 1: herbicidal activity, application before weed generation under submerged conditions (Table 16, symbol C); assay type: in vivo, oval-leafed pondweed (Monochoria vaginalis); details: 320 g/ha applied herbicide
In short: as §1

[4] = system: barnyard grass; test: Test Example 3: herbicidal effect by foliage application, Wagner pot (Table 18, symbol H); assay type: in vivo, barnyard grass (Echinochloa crus-galli); details: 320 g/ha
In short: (§2)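 Plants were sown in alluvial soil held under 0.1–0.5 cm standing water and grown 14 days in a greenhouse at 25–30 °C. An emulsifiable formulation, water-diluted to the set dose, was then sprayed onto the foliage, and effects were scored three weeks later using previously defined criteria.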

[5] = system: Chinese sprangletop; test: Test Example 3: herbicidal effect by foliage application, Wagner pot (Table 18, symbol D); assay type: in vivo, chinese sprangletop (Leptochloa chinensis); details: 320 g/ha
In short: as §2

[6] = system: rice flat sedge; test: Test Example 3: herbicidal effect by foliage application, Wagner pot (Table 18, symbol E); assay type: in vivo, rice flat sedge (Cyperus iria); details: 320 g/ha
In short: as §2

[7] = system: southern crabgrass; test: Test Example 4: herbicidal effect by soil treatment (Table 19, symbol F); assay type: in vivo, southern crabgrass (Digitaria ciliaris)
In short: (§3)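 Step 1: sow seeds in sterilized diluvial soil, cover ~1.5 cm. Step 2: spray diluted emulsion onto soil surface at predetermined rate. Step 3: greenhouse, 25–30° C, three weeks. Step 4: grade effect on each plant by earlier criteria.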

[8] = system: green foxtail; test: Test Example 4: herbicidal effect by soil treatment (Table 19, symbol G); assay type: in vivo, green foxtail (Setaria viridis)
In short: as §3

[9] = system: barnyard grass; test: Test Example 4: herbicidal effect by soil treatment (Table 19, symbol H); assay type: in vivo, barnyard grass (Echinochloa crus-galli)
In short: as §3

[10] = system: wild oat; test: Test Example 4: herbicidal effect by soil treatment (Table 19, symbol I); assay type: in vivo, wild oat (Avena fatua)
In short: as §3

[11] = system: blackgrass; test: Test Example 4: herbicidal effect by soil treatment (Table 19, symbol J); assay type: in vivo, blackgrass (Alopecurus myosuroides)
In short: as §3

[12] = system: Italian ryegrass; test: Test Example 4: herbicidal effect by soil treatment (Table 19, symbol K); assay type: in vivo, Italian ryegrass (Lolium multiflorum)
In short: as §3

[13] = system: windgrass; test: Test Example 4: herbicidal effect by soil treatment (Table 19, symbol L); assay type: in vivo, windgrass (Apera spica-venti)
In short: as §3

[14] = system: velvetleaf; test: Test Example 4: herbicidal effect by soil treatment (Table 19, symbol M); assay type: in vivo, velvetleaf (Abutilon theophrasti)
In short: as §3

[15] = system: redroot pigweed; test: Test Example 4: herbicidal effect by soil treatment (Table 19, symbol N); assay type: in vivo, redroot pigweed (Amaranthus retroflexus)
In short: as §3

[16] = system: lambsquarters; test: Test Example 4: herbicidal effect by soil treatment (Table 19, symbol O); assay type: in vivo, lambsquarters (Chenopodium album)
In short: as §3

[17] = system: chickweed; test: Test Example 4: herbicidal effect by soil treatment (Table 19, symbol P); assay type: in vivo, common chickweed (Stellaria media)
In short: as §3

[18] = system: false cleavers; test: Test Example 4: herbicidal effect by soil treatment (Table 19, symbol Q); assay type: in vivo, false cleavers (Galium spurium)
In short: as §3

[19] = system: persian speedwell; test: Test Example 4: herbicidal effect by soil treatment (Table 19, symbol R); assay type: in vivo, Persian speedwell (Veronica persica)
In short: as §3

[20] = system: southern crabgrass; test: Test Example 5: herbicidal effect by foliage application, plastic box (Table 20, symbol F); assay type: in vivo, southern crabgrass (Digitaria ciliaris); details: foliage application, 320 g/ha
In short: (§4)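 Foliar spray test: emulsion formulation diluted in water to a set application rate, sprayed onto 14-day-old plants raised in diluvial soil at 25° C to 30° C under glass. Both herbicidal effect and crop effect rated visually three weeks later.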

[21] = system: green foxtail; test: Test Example 5: herbicidal effect by foliage application, plastic box (Table 20, symbol G); assay type: in vivo, green foxtail (Setaria viridis); details: foliage application, 320 g/ha
In short: as §4

[22] = system: barnyard grass; test: Test Example 5: herbicidal effect by foliage application, plastic box (Table 20, symbol H); assay type: in vivo, barnyard grass (Echinochloa crus-galli); details: foliage application, 320 g/ha
In short: as §4

[23] = system: wild oat; test: Test Example 5: herbicidal effect by foliage application, plastic box (Table 20, symbol I); assay type: in vivo, wild oat (Avena fatua); details: foliage application, 320 g/ha
In short: as §4

[24] = system: blackgrass; test: Test Example 5: herbicidal effect by foliage application, plastic box (Table 20, symbol J); assay type: in vivo, blackgrass (Alopecurus myosuroides); details: foliage application, 320 g/ha
In short: as §4

[25] = system: Italian ryegrass; test: Test Example 5: herbicidal effect by foliage application, plastic box (Table 20, symbol K); assay type: in vivo, Italian ryegrass (Lolium multiflorum); details: foliage application, 320 g/ha
In short: as §4

[26] = system: windgrass; test: Test Example 5: herbicidal effect by foliage application, plastic box (Table 20, symbol L); assay type: in vivo, windgrass (Apera spica-venti); details: foliage application, 320 g/ha
In short: as §4

[27] = system: velvetleaf; test: Test Example 5: herbicidal effect by foliage application, plastic box (Table 20, symbol M); assay type: in vivo, velvetleaf (Abutilon theophrasti); details: foliage application, 320 g/ha
In short: as §4

[28] = system: lambsquarters; test: Test Example 5: herbicidal effect by foliage application, plastic box (Table 20, symbol O); assay type: in vivo, lambsquarters (Chenopodium album); details: foliage application, 320 g/ha
In short: as §4

[29] = system: false cleavers; test: Test Example 5: herbicidal effect by foliage application, plastic box (Table 20, symbol Q); assay type: in vivo, false cleavers (Galium spurium); details: foliage application, 320 g/ha
In short: as §4

[30] = system: persian speedwell; test: Test Example 5: herbicidal effect by foliage application, plastic box (Table 20, symbol R); assay type: in vivo, Persian speedwell (Veronica persica); details: foliage application, 320 g/ha
In short: as §4

[31] = system: redroot pigweed; test: Test Example 5: herbicidal effect by foliage application, plastic box (Table 20, symbol N); assay type: in vivo, redroot pigweed (Amaranthus retroflexus); details: foliage application, 320 g/ha, three weeks after application
In short: as §4

[32] = system: chickweed; test: Test Example 5: herbicidal effect by foliage application, plastic box (Table 20, symbol P); assay type: in vivo, common chickweed (Stellaria media); details: foliage application, 320 g/ha, three weeks after application
In short: as §4

[33] = amount of applied herbicide 320 g/ha

## COc1nn(C)c(=O)c(-c2c(-c3ccc4c(c3)OCCO4)sc3ccccc23)c1O [1-198]
[1]
  Herbicidal effect on A: late watergrass (grade 0-5): 3 (Herbicidal rate of 40% or more and less than 70%)
[2]
  Herbicidal effect on B: Japanese bulrush (grade 0-5): 0 (Herbicidal rate of 5% or less (almost no effect))
[3]
  Herbicidal effect on C: oval-leafed pondweed (grade 0-5): 0 (Herbicidal rate of 5% or less (almost no effect))
[4]
  herbicidal effect on H (barnyard grass), rating 0-5: 5 (Herbicidal rate of 90% or more (almost completely withered))
[5]
  herbicidal effect on D (Chinese sprangletop), rating 0-5: 3 (Herbicidal rate of 40% or more and less than 70%)
[6]
  herbicidal effect on E (rice flat sedge), rating 0-5: 5 (Herbicidal rate of 90% or more (almost completely withered))
[7]; AAH 320 g/ha
  F: southern crabgrass, herbicidal effect rating: 0 (Herbicidal rate of 5% or less (almost no effect))
[8]; AAH 320 g/ha
  G: green foxtail, herbicidal effect rating: 5 (Herbicidal rate of 90% or more (almost completely withered))
[9]; AAH 320 g/ha
  H: barnyard grass, herbicidal effect rating: 2 (Herbicidal rate of 20% or more and less than 40%)
[10]; AAH 320 g/ha
  I: wild oat, herbicidal effect rating: 0 (Herbicidal rate of 5% or less (almost no effect))
[11]; AAH 320 g/ha
  J: blackgrass, herbicidal effect rating: 0 (Herbicidal rate of 5% or less (almost no effect))
[12]; AAH 320 g/ha
  K: Italian ryegrass, herbicidal effect rating: 0 (Herbicidal rate of 5% or less (almost no effect))
[13]; AAH 320 g/ha
  L: windgrass, herbicidal effect rating: 0 (Herbicidal rate of 5% or less (almost no effect))
[14]; AAH 320 g/ha
  M: velvetleaf, herbicidal effect rating: 5 (Herbicidal rate of 90% or more (almost completely withered))
[15]; AAH 320 g/ha
  N: redroot pigweed, herbicidal effect rating: 0 (Herbicidal rate of 5% or less (almost no effect))
[16]; AAH 320 g/ha
  O: lambsquarters, herbicidal effect rating: 0 (Herbicidal rate of 5% or less (almost no effect))
[17]; AAH 320 g/ha
  P: chickweed, herbicidal effect rating: 5 (Herbicidal rate of 90% or more (almost completely withered))
[18]; AAH 320 g/ha
  Q: false cleavers, herbicidal effect rating: 1 (Herbicidal rate of 5% or more and less than 20%)
[19]; AAH 320 g/ha
  R: persian speedwell, herbicidal effect rating: 5 (Herbicidal rate of 90% or more (almost completely withered))
[20]; 3 weeks after application
  effect on southern crabgrass (F): 4 (Herbicidal rate of 70% or more and less than 90%)
[21]; 3 weeks after application
  effect on green foxtail (G): 4 (Herbicidal rate of 70% or more and less than 90%)
[22]; 3 weeks after application
  effect on barnyard grass (H): 2 (Herbicidal rate of 20% or more and less than 40%)
[23]; 3 weeks after application
  effect on wild oat (I): 0 (Herbicidal rate of 5% or less (almost no effect))
[24]; 3 weeks after application
  effect on blackgrass (J): 0 (Herbicidal rate of 5% or less (almost no effect))
[25]; 3 weeks after application
  effect on Italian ryegrass (K): 4 (Herbicidal rate of 70% or more and less than 90%)
[26]; 3 weeks after application
  effect on windgrass (L): 0 (Herbicidal rate of 5% or less (almost no effect))
[27]; 3 weeks after application
  effect on velvetleaf (M): 4 (Herbicidal rate of 70% or more and less than 90%)
[28]; 3 weeks after application
  effect on lambsquarters (O): 2 (Herbicidal rate of 20% or more and less than 40%)
[29]; 3 weeks after application
  effect on false cleavers (Q): 1 (Herbicidal rate of 5% or more and less than 20%)
[30]; 3 weeks after application
  effect on persian speedwell (R): 5 (Herbicidal rate of 90% or more (almost completely withered))

## COc1ccc2c(-c3c(O)c(C)nn(C)c3=O)c(-c3ccc(OC)c(OC)c3)sc2c1 [3-080]
[4]
  herbicidal effect on barnyard grass (H): 1 (Herbicidal rate of 5% or more and less than 20%)
[5]
  herbicidal effect on Chinese sprangletop (D): 0 (Herbicidal rate of 5% or less (almost no effect))
[6]
  herbicidal effect on rice flat sedge (E): 4 (Herbicidal rate of 70% or more and less than 90%)
[7]; [33]
  F: southern crabgrass, herbicidal effect grade: 0 (Herbicidal rate of 5% or less (almost no effect))
[8]; [33]
  G: green foxtail, herbicidal effect grade: 0 (Herbicidal rate of 5% or less (almost no effect))
[9]; [33]
  H: barnyard grass, herbicidal effect grade: 0 (Herbicidal rate of 5% or less (almost no effect))
[10]; [33]
  I: wild oat, herbicidal effect grade: 0 (Herbicidal rate of 5% or less (almost no effect))
[11]; [33]
  J: blackgrass, herbicidal effect grade: 0 (Herbicidal rate of 5% or less (almost no effect))
[12]; [33]
  K: Italian ryegrass, herbicidal effect grade: 0 (Herbicidal rate of 5% or less (almost no effect))
[13]; [33]
  L: windgrass, herbicidal effect grade: 0 (Herbicidal rate of 5% or less (almost no effect))
[14]; [33]
  M: velvetleaf, herbicidal effect grade: 0 (Herbicidal rate of 5% or less (almost no effect))
[15]; [33]
  N: redroot pigweed, herbicidal effect grade: 0 (Herbicidal rate of 5% or less (almost no effect))
[16]; [33]
  O: lambsquarters, herbicidal effect grade: 0 (Herbicidal rate of 5% or less (almost no effect))
[17]; [33]
  P: chickweed, herbicidal effect grade: 0 (Herbicidal rate of 5% or less (almost no effect))
[18]; [33]
  Q: false cleavers, herbicidal effect grade: 0 (Herbicidal rate of 5% or less (almost no effect))
[19]; [33]
  R: persian speedwell, herbicidal effect grade: 2 (Herbicidal rate of 20% or more and less than 40%)
[20]; three weeks after application
  F: southern crabgrass, herbicidal effect grade: 0 (Herbicidal rate of 5% or less (almost no effect))
[21]; three weeks after application
  G: green foxtail, herbicidal effect grade: 0 (Herbicidal rate of 5% or less (almost no effect))
[22]; three weeks after application
  H: barnyard grass, herbicidal effect grade: 0 (Herbicidal rate of 5% or less (almost no effect))
[23]; three weeks after application
  I: wild oat, herbicidal effect grade: 0 (Herbicidal rate of 5% or less (almost no effect))
[24]; three weeks after application
  J: blackgrass, herbicidal effect grade: 2 (Herbicidal rate of 20% or more and less than 40%)
[25]; three weeks after application
  K: Italian ryegrass, herbicidal effect grade: 4 (Herbicidal rate of 70% or more and less than 90%)
[26]; three weeks after application
  L: windgrass, herbicidal effect grade: 0 (Herbicidal rate of 5% or less (almost no effect))
[27]; three weeks after application
  M: velvetleaf, herbicidal effect grade: 1 (Herbicidal rate of 5% or more and less than 20%)
[31]
  N: redroot pigweed, herbicidal effect grade: 0 (Herbicidal rate of 5% or less (almost no effect))
[28]; three weeks after application
  O: lambsquarters, herbicidal effect grade: 1 (Herbicidal rate of 5% or more and less than 20%)
[32]
  P: chickweed, herbicidal effect grade: 5 (Herbicidal rate of 90% or more (almost completely withered))
[29]; three weeks after application
  Q: false cleavers, herbicidal effect grade: 0 (Herbicidal rate of 5% or less (almost no effect))
[30]; three weeks after application
  R: persian speedwell, herbicidal effect grade: 5 (Herbicidal rate of 90% or more (almost completely withered))
